Biological target: T1, Hsp90α (Homo sapiens, UniProt P07900)
T1 construct: gene HSP90AA1; full-length Hsp90
Experiment: BLI (ForteBio Octet Red […]); also FP competition with FITC-geldanamycin (IC50 […]) and HTRF ATPase inhibition
Type: binding

Kd: 27 ± 5 nM
SMILES: CCOc1ncc2c(n1)CCN(C(=O)c1cc(C(C)C)c(O)cc1O)C2 [CPUY201112]
